According to ChEMBL document CHEMBL1201862, “PubChem BioAssay data set” (2004):
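Cells were grown in 96-well plates and exposed to each compound for 48 hours at five concentrations; endpoints were interpolated linearly between bracketing concentrations, or set to the highest concentration if not reached. GI50 is the concentration that inhibits growth by half.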 Activity calls are given as the source filed them. Rule as the data show it: active = GI50 up to about 1.1 µM and inactive = higher.

Key:
Test in all cases: NCI tumour cell line growth inhibition, 48 h
A498 = tested on: A498
CCRF-CEM = tested on: CCRF-CEM
COLO 205 = tested on: COLO 205
HT-29 = tested on: HT-29
IGROV-1 = tested on: IGROV-1
KM12 = tested on: KM12
LOX IMVI = tested on: LOX IMVI
M14 = tested on: M14
MDA-N = tested on: MDA-N
Malme-3M = tested on: Malme-3M
NCI-H522 = tested on: NCI-H522
OVCAR-5 = tested on: OVCAR-5
SF-268 = tested on: SF-268
SF-295 = tested on: SF-295
SK-MEL-2 = tested on: SK-MEL-2
SK-OV-3 = tested on: SK-OV-3
SNB-19 = tested on: SNB-19
SR = tested on: SR
T47D = tested on: T47D
UACC-257 = tested on: UACC-257

Measured: GI50

Cc1cc(S(=O)(=O)n2ccnc2O)c(SCCCN(C)C)cc1Cl
inactive: A498 > 100 µM | CCRF-CEM > 100 µM | COLO 205 > 100 µM | HT-29 > 100 µM | IGROV-1 > 100 µM | KM12 > 100 µM | LOX IMVI > 100 µM | M14 > 100 µM | MDA-N > 100 µM | Malme-3M > 100 µM | NCI-H522 > 100 µM | OVCAR-5 > 100 µM | SF-268 > 100 µM | SF-295 > 100 µM | SK-MEL-2 > 100 µM | SK-OV-3 > 100 µM | SNB-19 > 100 µM | SR > 100 µM | T47D > 100 µM | UACC-257 > 100 µM
